# Measurements as given in publication PMC6934184, “Selective DNA-PKcs inhibition extends the therapeutic index of localized radiotherapy and chemotherapy” (The Journal of Clinical Investigation, 2019).
# Target: T1, TBK1 (Homo sapiens, UniProt Q9UHD2)
# T1 construct: purchased Thermo Fisher Scientific (Life Technologies) SelectScreen
# Assay: SelectScreen Z'LYTE
# Format: biochemical
# Method in brief: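 SelectScreen broad panel; activity (Z'LYTE, Adapta) plus binding formats. ATP: Km app for CSF1R Z'LYTE; 10 for CAMK1 Adapta. Readout = % per kinase.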
# T1 sequence (Q9UHD2 whole entry): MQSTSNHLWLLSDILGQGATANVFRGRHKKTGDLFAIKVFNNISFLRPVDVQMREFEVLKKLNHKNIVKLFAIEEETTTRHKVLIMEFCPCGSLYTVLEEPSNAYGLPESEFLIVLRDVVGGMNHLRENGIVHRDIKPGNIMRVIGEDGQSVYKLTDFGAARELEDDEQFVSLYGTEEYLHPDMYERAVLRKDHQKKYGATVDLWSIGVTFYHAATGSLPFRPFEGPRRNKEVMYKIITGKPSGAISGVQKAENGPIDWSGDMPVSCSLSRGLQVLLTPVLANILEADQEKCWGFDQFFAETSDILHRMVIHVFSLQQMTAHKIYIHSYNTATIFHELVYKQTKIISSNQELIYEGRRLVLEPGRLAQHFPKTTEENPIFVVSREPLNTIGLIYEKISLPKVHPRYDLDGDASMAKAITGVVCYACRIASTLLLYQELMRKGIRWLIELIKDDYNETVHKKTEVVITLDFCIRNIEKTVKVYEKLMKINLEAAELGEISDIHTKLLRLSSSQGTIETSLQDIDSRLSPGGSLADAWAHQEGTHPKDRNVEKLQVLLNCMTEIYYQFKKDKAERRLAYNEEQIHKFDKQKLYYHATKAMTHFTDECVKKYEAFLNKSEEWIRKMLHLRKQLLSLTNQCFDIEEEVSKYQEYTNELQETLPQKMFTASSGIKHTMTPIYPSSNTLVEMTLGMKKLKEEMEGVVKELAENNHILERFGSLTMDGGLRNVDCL
smiles,measurement,value
CN(C(=O)CN1CCOCC1)c1ccc2sc3c(-c4cccc5c(=O)cc(N6CC7CCC(C6)O7)oc45)cccc3c2c1 [NU5455],inhibition at 1 µM,2%
